Test results: patent publication US6352993B1, “Pyrimidine derivatives and processes for the preparation thereof” (Yuhan Corporation, priority 1997, dated 2002)
Structures can show the parent of a compound that is named as a salt.

How the values were obtained:
[1] = test system: gastric secretion in pylorus-ligated Sprague-Dawly rats; experiment: Inhibition of gastric secretion (pylorus-ligated rats, Shay method); assay type: in vivo; settings: 20 mg/kg intraduodenally, 5 hours; for Relative conc.: gastric juice acidity relative to omeprazole, equation (II); for Relative volume: gastric juice amount relative to omeprazole, equation (I); for Relative Acid Output: total acid output relative to omeprazole, equation (III)
Experimental: Test 2: Inhibition of gastric secretion
In accordance with the method disclosed in Shay, H., et al., Gastroenterology 5 43-61(1945), Test 2 was carried out.
Sprague-Dawly rats having a body weight of 170±10 g were divided into 3 groups(n=5) and deprived of food for 24 hours before the experiment with free access to water. Under ether anesthesia, the abdomen was incised, and the pylorus was ligated. As a comparative group, Group 1 was administered intraduodenally in a volume of 0.5 ml/200 g of 30% aqueous polyethylene glycol 400 solution. Groups 2 and 3 were administered intraduodenally with the compound of Example and omeprazole, respectively, each of which was suspended in 30% aqueous polyethylene glycol 400 solution at a concentration of 20 mg/kg. After closing the abdominal cavity, the rats were placed for 5 hours and then killed by cervical dislocation. The stomach was extracted to obtain gastric juice.
Tne gastric juice was centrifuged at 1,000 g to remove precipitates. The amount and acidity of the gastric juice were measured. Relative volumes, relative acid concentrations and relative acid outputs of the test compounds were calculated from equations(I), (II) and (III) and the results are shown in Table 2.
Relative volume=(the average amount of gastric juice of Group 1—the average amount of gastric juice of Group 2)/(the average amount of gastric juice of Group 1−the average amount of gastric juice of Group 3)—(I)
Relative acid concerntration=(the average acidity of Group 1—the average acidity of Group 2)/(the average acidity of Group 1—the average acidity of Group 3)—(II)
Relative acid output (the total amount of acid output of Group 1—the total amount of acid output of Group 2)/(the total amount of acid output of Group 1—the total amount of acid output of Group 3)—(m)

[2] = target: proton pump (H+/K+-ATPase) (UniProt P19156); experiment: Inhibition of proton pump (H+/K+-ATPase activity); assay type: biochemical; parameters: other: K+-stimulated proton pump activity, pH 6.0, 37°; settings: K+-stimulated proton pump activity, pH 6.0, 37° C., 30 minutes preincubation; read-out: IC50 (concentration inhibiting 50% of the proton pump activity)
Experimental: (§1) Test 1: Inhibition of proton pump (H^+/K^+-ATPase activity)
(§2) A proton pump enzyme was prepared by the same method as in the Experiment 1-1 of WO 94/14795. Further, the inhibitory effect of proton pump activity was measured by the same method as in Experiment 1-2 of WO 94/14795.
(§3) Namely, the proton pump activity stimulated by Mg^++ was used as a negative comparative group, and the activity stimulated by Mg^++ and K^+ was used as a positive comparative group. The comparative compound was omeprazole.
(§4) Test tubes were divided into 4 groups: Group 1 as negative comparative group(n=3), Group 2 as positive comparative group(n=3), Group 3(n=5×2) to be administered with the compound of the present invention and Group 4(n=5×2) to be administered with the comparative compound.
(§5) The inhibitory effects of Groups 3 and 4 on proton pump activity were measured by employing the compound prepared in Examples and omeprazole, respectively, each of which was dissolved in dimethylsulfoxide at 5 different concentrations.
(§6) To each of Groups 1, 2, 3 and 4 were added 100 μl of magnesium chloride(40 mM) dissolved in 40 mM Tris-HCI buffer(ph 6.0) and 100 μg of the enzyme source. The 50 μl of potassium chloride(50 mM) and 50 μl of ammonium chloride(6 mM) dissolved in 40 mM Tris-HCl buffer(pH 6.0) were added to all groups except for group 1.
(§7) 10 μl of dimethylsulfoxide was added to each of Groups 1 and 2; and to Group 3 was added 10 μl of dimethylsulfoxide solution prepared by dissolving compound of EXAMPLE at 5 different concentration(n=5×2). To Group 4, 10 μl of the solution prepared by dissolving omeprazole in dimethylsulfoxide at 5 different concentration(37.6, 21.4, 12.2, 7.0 and 4.0 μM) was added(n=5×2). 40 mM Tris-HCI buffer(pH=6.0) was added thereto so as to make the total volume 400 μl.
(§8) Thereafter, the test tube of each Group were placed at 37° C. for 30 minutes for the preincubation. 100 μl ATP solution (6.6 mM) was added until the reaction volume became 500 μl. After the reaction was carried out at 37° C. for 30 minutes, 25% cold trichloroacetic acid was added to terminate the enzyme reaction. The released inorganic phosphate was measured by an automatic analyzer(Express 550, coming).
(§9) The difference between Group 1 and Group 2 represents the proton pump activity activated by K^+ only. The IC50s of Group 3 and 4 were calculated from Litchfield-wilcoxon equation[see, e.g., J. Pharrnacol. Exp. Ther., 96, 99(1949)]. The concentrations of the test compounds inhibiting 50% of the proton pump activity are represented as IC50 in Table 1.

[3] = target: proton pump (H+/K+-ATPase) (UniProt P19156); experiment: Inhibition of proton pump (H+/K+-ATPase activity); assay type: biochemical; parameters: Effect ratio; settings: relative to omeprazole IC50
Experimental: as §1, §2, §3, §4, §5, §6, §7, §8, §9

| IC50 [2] | Effect ratio [3] | SMILES | Relative conc. [1] | Relative volume [1] | Relative Acid Output [1] |
| --- | --- | --- | --- | --- | --- |
| 7.85 µM | 1.4 | C=CCNc1nc(C)c(C)c(N2CCc3ccccc3C2)n1 [Example 2, 5,6-dimethyl-2-(3-allylamino)-4-(1,2,3,4-tetrahydroisoquinolin-2-yl)pyrimidine hydrochloride] | 0.57 | 0.69 | 0.70 |
| 6.91 µM | 1.6 | COCCNc1nc(C)c(C)c(N2CCc3ccccc3C2)n1.Cl [Example 5, 5,6-dimethyl-2-(2-methoxyethylamino)-4-(1,2,3,4-tetrahydroisoquinolin-2-yl)pyrimidine hydrochloride] | 0.18 | 0.45 | 0.43 |
| 2.15 µM | 5.2 | Cc1nc(NCC(C)C)nc(N2CCc3ccccc3C2C)c1C (stereo not shown) [Example 14, 5,6-dimethyl-2-isobutylamino-4-(1-methyl-1,2,3,4-tetrahydroisoquinolin-2-yl)pyrimidine] | 0.41 | 0.93 | 0.79 |
| 6.69 µM | 1.7 | Cc1csc(Nc2nc(C)c(C)c(N3CCc4ccccc4C3C)n2)n1.Cl (stereo not shown) [Example 22, 5,6-dimethyl-2-(4-methylthiazol-2-yl)amino-4-(1-methyl-1,2,3,4-tetrahydroisoquinolin-2-yl)pyrimidine hydrochloride] | 0.46 | 0.59 | 0.62 |
| 0.43 µM | 25.8 | Cc1csc(Nc2nc(C)c(C)c(N3CCc4ccccc4C3)n2)n1.Cl [Example 23, 5,6-dimethyl-2-(4-methylthiazol-2-yl)amino-4-(1,2,3,4-tetrahydroisoquinolin-2-yl)pyrimidine hydrochloride] | 1.34 | 1.58 | 1.23 |
| 0.18 µM | 61.7 | Cc1nc(Nc2ccc(F)cc2)nc(N2CCc3c(O)ccc(O)c3C2C)c1C.Cl (stereo not shown) [Example 43, 5,6-dimethyl-2-(4-fluorophenylamino)-4-(5,8-dihydroxy-1-methyl-1,2,3,4-tetrahydroisoquinolin-2-yl)pyrimidine hydrochloride] |  |  |  |
|  |  | CC(=O)OCc1nc(Nc2ccc(F)cc2)nc(N2CCc3ccccc3C2C)c1C (stereo not shown) [Example 50, 5-methyl-6-acetoxymethyl-2-(4-fluorophenylamino)-4-(1-methyl-1,2,3,4-tetrahydroisoquinolin-2-yl)pyrimidine] | 0.77 | 1.01 | 0.98 |
|  |  | CCC(=O)OCc1nc(Nc2ccc(F)cc2)nc(N2CCc3ccccc3C2C)c1C (stereo not shown) [Example 51, 5-methyl-6-ethylcarbonyloxymethyl-2-(4-fluorophenylamino)-4-(1-methyl-1,2,3,4-tetrahydroisoquinolin-2-yl)pyrimidine] | 1.02 | 1.09 | 1.06 |
|  |  | Cc1c(COC(=O)C(C)C)nc(Nc2ccc(F)cc2)nc1N1CCc2ccccc2C1C (stereo not shown) [Example 52, 5-methyl-6-isopropylcarbonyloxymethyl-2-(4-fluorophenylamino)-4-(1-methyl-1,2,3,4-tetrahydroisoquinolin-2-yl)pyrimidine] | 0.88 | 0.86 | 0.96 |
|  |  | Cc1c(COC(=O)C2CC2)nc(Nc2ccc(F)cc2)nc1N1CCc2ccccc2C1C (stereo not shown) [Example 54, 5-methyl-6-cyclopropylcarbonyloxymethyl-2-(4-fluorophenylamino)-4-(1-methyl-1,2,3,4-tetrahydroisoquinolin-2-yl)pyrimidine] | 0.79 | 0.79 | 0.95 |
|  |  | Cc1nc(Nc2ccc(F)cc2)nc(N2CCc3cc(OC(=O)c4ccc([N+](=O)[O-])cc4)ccc3C2C)c1C (stereo not shown) [Example 107, 5,6-diinethyl-2-(4-fluorophenylamino)-4-{1-methyl-6-(4-nitrobenzoyloxy)-1,2,3,4-tetrahydroisoquinolin-2-yl}pyrimidine] | 0.56 | 0.62 | 0.73 |
|  |  | Cc1c(COC(=O)CNC(=O)OC(C)(C)C)nc(Nc2ccc(F)cc2)nc1N1CCc2ccccc2C1C (stereo not shown) [Example 139, 5-methyl-6-(N-t-butoxycarbonyl-glycyloxymetyl)-2-(4-fluorophenylamino)-4-(1-methyl-1,2,3,4-tetrahydroisoquinolin-2-yl)pyrimidine] | 0.75 | 1.01 | 1.01 |
|  |  | Cc1c(COC(=O)C(Cc2cn(Cc3ccccc3)cn2)NC(=O)OC(C)(C)C)nc(Nc2ccc(F)cc2)nc1N1CCc2ccccc2C1C (stereo not shown) [Example 144, 5-methyl-6-(N-t-butoxycarbonyl-Im-benzyl-histidyloxymethyl)-2-(4-fluorophenylamino)-4-(1-methyl-1,2,3,4-tetrahydroisoquinolin-2-yl)pyrimidine] | 0.80 | 0.90 | 0.94 |
|  |  | Cc1c(COC(=O)[C@@H](N)C(C)C)nc(Nc2ccc(F)cc2)nc1N1CCc2ccccc2C1C.Cl.Cl (stereo partly shown) [Example 171, 5-methyl-6-valyloxymethyl-2-(4-fluorophenylamino)-4-(1-methyl-1,2,3,4-tetrahydroisoquinolin-2-yl)pyrimidine dibydrochloride] | 1.42 | 1.46 | 1.33 |
|  |  | Cc1c(COC(=O)[C@@H](N)Cc2ccccc2)nc(Nc2ccc(F)cc2)nc1N1CCc2ccccc2C1C.Cl.Cl (stereo partly shown) [Example 172, 5-methyl-6-(phenylalanyloxymethyl)-2-(4-fluorophenylamino)-4-(1-methyl-1,2,3,4-tetrahydroisoquinolin-2-yl)pyrimidine dihydrochloride] | 1.33 | 1.48 | 1.34 |
|  |  | Cc1c(COC(=O)CN2CCOCC2)nc(Nc2ccc(F)cc2)nc1N1CCc2ccccc2C1C.Cl.Cl (stereo not shown) [Example 175, 5-methyl-6-(4-morpholineacetoxymethyl)-2-(4-fluorophenylamino)-4-(t1-methyl-1,2,3,4tetrahydroisoquinolin-2-yl)pyrimidine dihydrochloride] | 0.30 | 0.87 | 0.79 |
|  |  | Cc1c(COC(=O)CN2CCCCC2)nc(Nc2ccc(F)cc2)nc1N1CCc2ccccc2C1C.Cl.Cl (stereo not shown) [Example 181, 5-rethyl-6-(1-piperidineacetoxymethyl)-2-(4-fluorophenylamino)-4-(1-methyl-1,2,3,4-tetrahydroisoquinolin-2-yl)pyrimidine dihydrochloride] | 0.16 | 0.99 | 0.80 |
| 11.1 µM |  | COc1ccc2[nH]c([S+]([O-])Cc3ncc(C)c(OC)c3C)nc2c1 (stereo not shown) [Omeprazole, omeprazole, reference compound] |  |  |  |
